This is an account of results in US9725465B2, “Biaryl acetamide compounds and methods of use thereof” (Ambit Biosciences Corporation, priority 2013, dated 2017).

Experiment [1] deals with FLT3 kinase (Homo sapiens (Human), UniProt P36888). Description: Competition binding assay (Kd), FLT3. The settings on record: competition binding.
Procedure: The liganded beads were blocked with excess biotin and washed with blocking buffer (SeaBlock (Pierce), 1% BSA, 0.05% Tween 20, 1 mM DTT) to remove unbound ligand and to reduce non-specific binding. […] Test compounds were prepared as 100× stocks in DMSO and diluted into the aqueous environment. Kds were determined using an eleven point threefold serial dilutions. DMSO or control compounds were was added to control assays lacking a test compound. […] The kinase concentration in the eluates was measured by quantitative PCR.
A selectivity score (S35) is a quantitative measure of selectivity of a compound against a panel of kinases. […] Percent of control (POC) is calculated by subtracting the signal of the control compound (POC=0) from the signal of the test compound and dividing the outcome by the signal of DMSO (POC=100) minus the signal of the control compound.
For experiment [2], the target named is KIT kinase (Homo sapiens (Human), UniProt P10721). Description: Competition binding assay (Kd), KIT. The settings on record: competition binding. A digest of the protocol: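 Kd derived from eleven-point threefold serial dilutions of compound competing with bead-bound ligand for kinase; bound kinase eluted and measured by quantitative PCR. Kinase supplied either as a T7 phage fusion or expressed in HEK-293 cells with a DNA tag; DMSO served as control.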
KIT kinase, sequence (P10721 26-976): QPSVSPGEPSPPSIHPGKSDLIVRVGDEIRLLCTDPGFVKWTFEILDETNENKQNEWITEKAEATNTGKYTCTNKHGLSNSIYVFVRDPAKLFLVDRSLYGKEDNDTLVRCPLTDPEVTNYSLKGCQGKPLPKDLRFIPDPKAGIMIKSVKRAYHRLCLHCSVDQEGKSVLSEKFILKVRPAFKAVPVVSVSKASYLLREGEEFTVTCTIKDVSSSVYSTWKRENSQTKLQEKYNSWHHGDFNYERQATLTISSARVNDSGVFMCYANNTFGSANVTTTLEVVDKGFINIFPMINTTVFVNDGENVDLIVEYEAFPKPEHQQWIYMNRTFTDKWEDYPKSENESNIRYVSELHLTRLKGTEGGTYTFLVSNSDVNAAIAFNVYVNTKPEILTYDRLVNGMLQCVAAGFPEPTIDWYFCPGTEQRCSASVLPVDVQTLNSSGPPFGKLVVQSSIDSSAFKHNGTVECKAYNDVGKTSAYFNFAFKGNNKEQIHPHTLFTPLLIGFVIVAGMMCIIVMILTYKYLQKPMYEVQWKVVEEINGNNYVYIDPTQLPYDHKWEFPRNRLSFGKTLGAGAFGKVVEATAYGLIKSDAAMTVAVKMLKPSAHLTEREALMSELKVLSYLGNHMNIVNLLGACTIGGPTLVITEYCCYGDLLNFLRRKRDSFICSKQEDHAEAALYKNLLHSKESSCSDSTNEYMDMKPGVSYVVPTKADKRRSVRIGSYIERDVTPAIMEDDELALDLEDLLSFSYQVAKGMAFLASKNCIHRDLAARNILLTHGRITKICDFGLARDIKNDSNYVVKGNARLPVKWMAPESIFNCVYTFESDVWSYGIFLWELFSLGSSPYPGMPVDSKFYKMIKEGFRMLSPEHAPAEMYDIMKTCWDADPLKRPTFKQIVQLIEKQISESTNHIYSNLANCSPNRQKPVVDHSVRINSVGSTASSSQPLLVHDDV

Structures are written as SMILES.

FLT3 kinase, sequence (P36888 27-993): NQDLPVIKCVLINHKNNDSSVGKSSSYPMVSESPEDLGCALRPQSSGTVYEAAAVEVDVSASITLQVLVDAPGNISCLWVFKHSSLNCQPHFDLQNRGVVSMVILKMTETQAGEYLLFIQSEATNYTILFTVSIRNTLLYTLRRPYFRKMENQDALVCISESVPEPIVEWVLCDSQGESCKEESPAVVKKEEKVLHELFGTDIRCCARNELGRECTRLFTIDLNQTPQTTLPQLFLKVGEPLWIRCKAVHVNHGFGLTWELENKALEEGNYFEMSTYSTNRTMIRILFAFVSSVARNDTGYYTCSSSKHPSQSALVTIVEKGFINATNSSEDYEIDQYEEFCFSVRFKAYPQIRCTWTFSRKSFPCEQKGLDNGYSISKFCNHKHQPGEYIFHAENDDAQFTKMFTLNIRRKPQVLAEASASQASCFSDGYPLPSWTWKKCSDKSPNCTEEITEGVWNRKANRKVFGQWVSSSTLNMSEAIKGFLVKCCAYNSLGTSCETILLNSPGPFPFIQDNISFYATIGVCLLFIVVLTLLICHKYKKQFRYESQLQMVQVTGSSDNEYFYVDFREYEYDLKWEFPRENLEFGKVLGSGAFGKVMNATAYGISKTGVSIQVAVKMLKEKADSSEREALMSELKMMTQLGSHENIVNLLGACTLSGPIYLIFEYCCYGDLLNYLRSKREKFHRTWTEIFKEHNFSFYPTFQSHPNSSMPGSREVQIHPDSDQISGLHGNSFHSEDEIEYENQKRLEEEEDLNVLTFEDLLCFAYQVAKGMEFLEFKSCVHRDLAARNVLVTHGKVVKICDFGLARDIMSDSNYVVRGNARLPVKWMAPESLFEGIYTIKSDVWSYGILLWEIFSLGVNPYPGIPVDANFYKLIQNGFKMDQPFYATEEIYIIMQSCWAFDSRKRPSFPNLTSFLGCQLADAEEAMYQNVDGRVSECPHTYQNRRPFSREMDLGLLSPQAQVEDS

By Kd is commonly meant a measure of binding affinity in units of concentration. As to `COc1cc2nc(-c3ccc(CC(=O)Nc4cc(C5(C(F)(F)F)CC5)on4)c(F)c3)cnc2cc1OCCN1CC2CC1CO2` (stereo not drawn) [Example 224, 2-[2-fluoro-4-[7-methoxy-6-[2-(2-oxa-5-azabicyclo[2.2.1]heptan-5-yl)ethoxy]quinoxalin-2-yl]phenyl]-N-[5-[1-(trifluoromethyl)cyclo-propyl]isoxazol-3-yl]acetamide], the Kd in experiment [1] and in experiment [2] was below 5 nM in each case.
As to `COc1cc2ncc(-c3cc(F)c(CC(=O)Nc4cc(C(C)(C)C(F)(F)F)on4)c(F)c3)nc2cc1OC` [Example 225, 2-[4-(6,7-dimethoxyquinoxalin-2-yl)-2,6-difluoro-phenyl]-N-[5-(2,2,2-trifluoro-1,1-dimethyl-ethyl)isoxazol-3-yl]acetamide], the Kd in experiment [1] and in experiment [2] was below 5 nM throughout.
Turning to `COc1cc2ncc(-c3cc(F)c(CC(=O)Nc4cc(C5(C(F)(F)F)CC5)on4)c(F)c3)nc2cc1OC` [Example 226, 2-[4-(6,7-dimethoxyquinoxalin-2-yl)-2,6-difluoro-phenyl]-N-[5-[1-(trifluoromethyl)cyclo-propyl]isoxazol-3-yl]acetamide], the Kd in experiment [1] and in experiment [2] was below 5 nM throughout.
As for `COc1cc2ncc(-c3ccc(CC(=O)Nc4cc(C5(C(F)(F)F)CC5)on4)c(F)c3)nc2cc1OCCCN` [Example 227, 2-[4-[7-(3-aminopropoxy)-6-methoxy-quinoxalin-2-yl]-2-fluoro-phenyl]-N-[5-[1-(trifluoromethyl)cyclo-propyl]isoxazol-3-yl]acetamide], the Kd in experiment [1] and in experiment [2] was below 5 nM each time.
With `COc1cc2nc(-c3ccc(CC(=O)Nc4cc(C5(C(F)(F)F)CC5)nn4C)c(F)c3)cnc2cc1OCCN1CCOCC1` [Example 228, 2-[2-fluoro-4-[7-methoxy-6-(2-morpholino-ethoxy)quinoxalin-2-yl]phenyl]-N-[2-methyl-5-[1-(trifluoromethyl)cyclo-propyl]pyrazol-3-yl]acetamide], the Kd in experiment [1] and in experiment [2] was below 5 nM each time.
Regarding `COc1cc2ncc(-c3cnc(CC(=O)Nc4cc(C(C)(C)C(F)(F)F)on4)c(F)c3)nc2cc1OC` [Example 229, 2-[5-(6,7-dimethoxyquinoxalin-2-yl)-3-fluoro-2-pyridyl]-N-[5-(2,2,2-trifluoro-1,1-dimethyl-ethyl)isoxazol-3-yl]acetamide], the Kd in experiment [1] and in experiment [2] was below 5 nM each time.
`COc1cc2nc(-c3ccc(CC(=O)Nc4cc(C5(C(F)(F)F)CC5)n[nH]4)c(F)c3)cnc2cc1OCCN1CCOCC1` [Example 230, 2-[2-fluoro-4-[7-methoxy-6-(2-morpholino-ethoxy)quinoxalin-2-yl]phenyl]-N-[3-[1-(trifluoro-methyl)cyclopropyl]-1H-pyrazol-5-yl]acetamide]: the Kd in experiment [1] and in experiment [2] was below 5 nM each time.
Take `COc1cc2nc(-c3ccc(CC(=O)Nc4cc(C5(C(F)(F)F)CC5)on4)cc3)cnc2cc1OCCN1CCOCC1` [Example 231, 2-[4-[7-methoxy-6-(2-morpholinoethoxy)quinoxalin-2-yl]phenyl]-N-[5-[1-(trifluoromethyl)cyclo-propyl]isoxazol-3-yl]acetamide]: the Kd in experiment [1] and in experiment [2] was below 5 nM in each case.
For the molecule `COc1cc2cc(-c3ccc(CC(=O)Nc4cc(C5(C(F)(F)F)CC5)on4)c(F)c3)cnc2cc1OCCN1CCOCC1` [Example 232, 2-[2-fluoro-4-[6-methoxy-7-(2-morpholinoethoxy)-3-quinolyl]phenyl]-N-[5-[1-(trifluoromethyl)cyclo-propyl]isoxazol-3-yl]acetamide], the Kd in experiment [1] and in experiment [2] was below 5 nM each time.
With `COc1cc2nc(-c3ccc(CC(=O)Nc4cc(C5(C(F)(F)F)CC5)on4)c(F)c3)cnc2cc1C(C)(O)CO` (stereo not drawn) [Example 233, 2-[4-[6-(1,2-dihydroxy-1-methyl-ethyl)-7-methoxy-quinoxalin-2-yl]-2-fluoro-phenyl]-N-[5-[1-(trifluoro-methyl)cyclopropyl]isoxazol-3-yl]acetamide], the Kd in experiment [1] and in experiment [2] was below 5 nM each time.
With `COc1cc2ncc(-c3ccc(CC(=O)Nc4cc(C5(C(F)(F)F)CC5)on4)c(F)c3)nc2cc1OCCN1CCOCC1` [Example 234, 2-[2-fluoro-4-[6-methoxy-7-(2-morpholino-ethoxy)quinoxalin-2-yl]phenyl]-N-[5-[1-(trifluoro-methyl)cyclopropyl]isoxazol-3-yl]acetamide], the Kd in experiment [1] and in experiment [2] was below 5 nM each time.
`COc1cc2nc(-c3ccc(CC(=O)Nc4cc(C(C)(C)C(F)(F)F)n[nH]4)c(F)c3)cnc2cc1OCCN1CCOCC1` [Example 235, 2-[2-fluoro-4-[7-methoxy-6-(2-morpholino-ethoxy)quinoxalin-2-yl]phenyl]-N-[3-(2,2,2-trifluoro-1,1-dimethyl-ethyl)-1H-pyrazol-5-yl]acetamide]: the Kd in experiment [1] and in experiment [2] was below 5 nM in each case.
For `COc1cc2ncc(-c3ccc(CC(=O)Nc4cc(C5(C(F)(F)F)CC5)on4)c(F)c3)nc2cc1OCC(O)CO` (stereo not drawn) [Example 236, 2-[4-[7-(2,3-dihydroxypropoxy)-6-methoxy-quinoxalin-2-yl]-2-fluoro-phenyl]-N-[5-[1-(trifluoromethyl)cyclo-propyl]isoxazol-3-yl]acetamide], the Kd in experiment [1] and in experiment [2] was below 5 nM throughout.
With `COc1cc2nc(-c3ccc(CC(=O)Nc4cc(C5(C(F)(F)F)CC5)on4)c(F)c3)cnc2cc1OCCCNC(C)=O` [Example 237, 2-[4-[6-(3-acetamidopropoxy)-7-methoxy-quinoxalin-2-yl]-2-fluoro-phenyl]-N-[5-[1-(trifluoromethyl)cyclo-propyl]isoxazol-3-yl]acetamide], the Kd in experiment [1] and in experiment [2] was below 5 nM in each case.
Take `COc1cc2nc(-c3ccc(CC(=O)Nc4cc(C5(C(F)(F)F)CC5)on4)c(F)c3)cnc2cc1OCC(O)CO` (stereo not drawn) [Example 238, 2-[4-[6-(2,3-dihydroxypropoxy)-7-methoxy-quinoxalin-2-yl]-2-fluoro-phenyl]-N-[5-[1-(trifluoromethyl)cyclo-propyl]isoxazol-3-yl]acetamide]: the dissociation constant Kd in experiment [1] and in experiment [2] was below 5 nM throughout.
On to `COc1cc2ncc(-c3ccc(CC(=O)Nc4cc(C5(C(F)(F)F)CC5)on4)c(F)c3)nc2cc1OCC(C)(C)O` [Example 239, 2-[2-fluoro-4-[7-(2-hydroxy-2-methyl-propoxy)-6-methoxy-quinoxalin-2-yl]phenyl]-N-[5-[1-(trifluoro-methyl)cyclopropyl]isoxazol-3-yl]acetamide], for which the Kd in experiment [1] and in experiment [2] was below 5 nM in each case.
`COc1cc2nc(-c3ccc(CC(=O)Nc4cc(C5(C(F)(F)F)CC5)on4)c(F)c3)cnc2cc1OCCN1CCCOCC1` [Example 240, 2-[2-fluoro-4-[7-methoxy-6-[2-(1,4-oxazepan-4-yl)ethoxy]quinoxalin-2-yl]phenyl]-N-[5-[1-(trifluoromethyl)cyclo-propyl]isoxazol-3-yl]acetamide]: the equilibrium dissociation constant (Kd) in experiment [1] and in experiment [2] was below 5 nM each time.
Take `COc1cc2nc(-c3ccc(CC(=O)Nc4cc(C5(C(F)(F)F)CC5)on4)c(F)c3)cnc2cc1OCCN1CCNCC1` [Example 241, 2-[2-fluoro-4-[7-methoxy-6-(2-piperazin-1-ylethoxy)quinoxalin-2-yl]phenyl]-N-[5-[1-(trifluoromethyl)cyclo-propyl]isoxazol-3-yl]acetamide]: the Kd in experiment [1] and in experiment [2] was below 5 nM throughout.
Turning to `COc1cc2nc(-c3ccc(CC(=O)Nc4cc(C5(C(F)(F)F)CC5)on4)c(F)c3)cnc2cc1OCCN1CCO[C@H](C)C1` [Example 242, 2-[2-fluoro-4-[7-methoxy-6-[2-[(2R)-2-methylmorpholin-4-yl]ethoxy]quinoxalin-2-yl]phenyl]-N-[5-[1-(trifluoromethyl)cyclo-propyl]isoxazol-3-yl]acetamide], the Kd in experiment [1] and in experiment [2] was below 5 nM in each case.
In the case of `COc1cc2nc(-c3ccc(CC(=O)Nc4cc(C5(C(F)(F)F)CC5)on4)c(F)c3)cnc2cc1OCCN1CCOC[C@@H]1C` [Example 243, 2-[2-fluoro-4-[7-methoxy-6-[2-[(3S)-3-methylmorpholin-4-yl]ethoxy]quinoxalin-2-yl]phenyl]-N-[5-[1-(trifluoromethyl)cyclo-propyl]isoxazol-3-yl]acetamide], the dissociation constant (Kd) in experiment [1] and in experiment [2] was below 5 nM each time.
As to `COc1cc2nc(-c3ccc(CC(=O)Nc4cc(C5(C(F)(F)F)CC5)on4)c(F)c3)cnc2cc1OCCN1CC2CCC(C1)O2` [Example 244, 2-[2-fluoro-4-[7-methoxy-6-[2-(8-oxa-3-azabicyclo[3.2.1]octan-3-yl)ethoxy]quinoxalin-2-yl]phenyl]-N-[5-[1-(trifluoromethyl)cyclo-propyl]isoxazol-3-yl]acetamide], the Kd in experiment [1] and in experiment [2] was below 5 nM each time.
As to `COc1cc2nc(-c3ccc(CC(=O)Nc4cc(C5(C(F)(F)F)CC5)on4)c(F)c3)cnc2cc1OCCN1C2CCC1COC2` [Example 245, 2-[2-fluoro-4-[7-methoxy-6-[2-(3-oxa-8-azabicyclo[3.2.1]octan-8-yl)ethoxy]quinoxalin-2-yl]phenyl]-N-[5-[1-(trifluoromethyl)cyclo-propyl]isoxazol-3-yl]acetamide], the Kd in experiment [1] and in experiment [2] was below 5 nM each time.
Turning to `COc1cc2nc(-c3ccc(CC(=O)Nc4cc(C(C)(C)C(F)(F)F)on4)c(F)c3)cnc2cc1OCC(C)(C)O` [Example 246, 2-[2-fluoro-4-[6-(2-hydroxy-2-methyl-propoxy)-7-methoxy-quinoxalin-2-yl]phenyl]-N-[5-(2,2,2-trifluoro-1,1-dimethyl-ethyl)isoxazol-3-yl]acetamide], the Kd in experiment [1] and in experiment [2] was below 5 nM throughout.
Take `COc1cc2nc(-c3ccc(CC(=O)Nc4cc(C5(C(F)(F)F)CC5)on4)c(F)c3)cnc2cc1OCCN1CCOC[C@H]1C` [Example 247, 2-[2-fluoro-4-[7-methoxy-6-[2-[(3R)-3-methylmorpholin-4-yl]ethoxy]quinoxalin-2-yl]phenyl]-N-[5-[1-(trifluoromethyl)cyclo-propyl]isoxazol-3-yl]acetamide]: the equilibrium dissociation constant (Kd) in experiment [1] and in experiment [2] was below 5 nM each time.
